Holding throughout (type): in vivo
Assay [1] concerns corn. Description: Subsurface drip irrigation (SDI) chemigation field study, limited (deficit) vs fully irrigated, Examples 1-2. The note with it: 261 gai/ha, 50% irrigated deficit.
Assay [2] relates to corn. Description: SDI split plot field study, 115 day maturity corn hybrid, deficit vs fully irrigated, Example 3. The note with it: 261 gai/ha, 50% irrigated deficit.
The test system of assay [3] is corn. Briefly: Greenhouse subsurface drip irrigation trial, deficit irrigated, Examples 4-8. As to conditions: for % Yield Increase by Product over Untr./50% Irr. / Yield: SDI chemigated at V3/V4, 50% irrigated deficit, Azoxystrobin 261, PPZ 126, TXP 250, PBZ 12.5, TMX 70 gai/ha; for Yield compared with the control, in words: water stress regime (50% irrigated), SDI. The method, then:
A greenhouse subsurface drip irrigation trial was conducted on corn to evaluate treatment effects on yield in fully irrigated vs. deficit irrigated conditions. In this experiment, standardized growth conditions were applied across all corn treatments including: soil-water availability, soil texture and composition, soil chemical and physical properties, meteorological and environmental parameters, and plant nutrition in a greenhouse. No indication of plant disease or pest damage was observed over the course of the study and no pest management program was necessary. A homogeneous sand-organic matter soil mixture (0.18% organic matter) was used as the growth medium in 55-gal containers. These containers were used as a weighing lysimeter, where daily changes in system weight were used to calculate plant transpiration. Four corn plants were grown in each 55-gal container. Three 55-gal containers (12 plants total) made up each treatment. All irrigation and chemical treatments were applied via sub-surface irrigation. Chemical treatments consisted of: azoxystrobin (Quadris), paclobutrazol (Trimmit), trinexapac-ethyl (Moddus), and propiconazole (Tilt) at maximum labeled rates.
Corn plants were grown from seed and transplanted in the 55-gal drums approximately 14 days after planting. Uniform adequate irrigation was applied up to growth stage V3/V4 to ensure plant establishment. Chemical treatment applications were applied at growth stage V3/V4 via sub-surface chemigation. At stage V3/V4, irrigation was decreased to replicate deficit water conditions across all treatments for the remainder of the study period. Irrigation was managed daily to maintain 50% plant-available water. Visual signs of abiotic plant stress were observed approximately 30 days after chemical application. All corn plants were grown to yield and cobs were harvested when kernels were uniformly dry (15% moisture content). Root architecture, specifically relative number of fine roots, was measured at within 2 weeks of harvest using a digital imaging technique. Fine roots are related to water uptake productivity, which is directly tied to the ability of the plant to access soil-water under stress.

For assay [4], the system named is corn. Briefly: Lateral-move sprinkler irrigation field study, 113 day maturity corn hybrid, Examples 11-12. The note with it: 261 gai/ha, 60% irrigated deficit.
Assay [5] concerns soybean. Briefly: Sprinkler irrigation field study on soybean yield and WUE, Table 14 (treatments 31-32).
The test system of assay [6] is corn. Briefly: Lateral-move sprinkler irrigation field study, 112 day maturity corn hybrid, Examples 24-25. The note with it: 250 gai/ha, 60% irrigated deficit. The method, then:
Testing Procedure: A sprinkler irrigation field study was conducted on a deep silt loam soil using a 112 day maturity corn hybrid. This trial was conducted to quantify the impact of azoxystrobin and trinexapac-ethyl on grain yield, and water productivity of corn under limited (deficit) and fully-irrigated settings. The study utilized a lateral-move sprinkler irrigation (LMS) system. The study was replicated three times in an […]. Each main plot was approximately 185 sq. meters. Irrigation control panels, chemical injection pumps, and filters were housed at the irrigation well house to manage irrigation and chemigation events.
Soil water status was monitored throughout the growing season using soil moisture sensors. Corn seed was planted with a precision planter at a depth of 2 inches and rows spaced at 30 inches. The planting population was 30,000 seeds per acre. Testing parameters, and irrigation levels were conducted according to the Kansas State University experimental procedure [see e.g., (1) Lamm, F. R., A. J. Schlegel, and G. A. Clark. 2003. Development of a Best Management Practice for Nitrogen Fertigation of Corn Using SDI. Appl. Engr in Agric. and (2) Lamm, F. R., H. L. Manges, L. R. Stone, A. H. Khan, and D. H. Rogers. 1995. Water requirement of subsurface drip-irrigated corn in northwest Kansas. Trans. ASAE, 38(2):441-448.]. Moisture levels, irrigation levels, evapotranspiration, and plant health were measured throughout the growing season. Climatic variables were measured (air temperature, rainfall, solar and net radiation, relative humidity, rainfall, wind speed and direction) throughout the season. Irrigation for the fully irrigated treatments was scheduled according to need by a climatic water budget using calculated evapotranspiration as a withdrawal and with rainfall and irrigation as deposits. Irrigation amounts for each event for the fully irrigated plots were generally 0.96 inches for each event. The deficit irrigation treatments were scheduled at approximately 60% of the fully irrigated plots. Volumetric soil water content was measured in one-foot increments to a depth of 8 ft on an approximately weekly basis throughout the crop season to determine total water use. Crop water use was calculated as the sum of irrigation, precipitation and changes in soil water between the initial and final soil water sampling dates. Water productivity (WUE) was calculated as the crop yield divided by the seasonal water use (Water Productivity (WP)=Yield/ETc). […] Crop yield from each replication was recorded after harvest and adjusted to 15% moisture content. Corn yield components of crop grain yield, plants/area, ears/plant, and kernel weight were measured by hand harvesting a representative sample.

Setting [7] is: Azoxy 150 gai/ha foliar, 2 applications, alone or + Acibenzolar-S-methyl 10 gai/ha, 60% irrigated deficit.

Marks after values point to notes of the source that are not given here.

`CO/C=C(/C(=O)OC)c1ccccc1Oc1cc(Oc2ccccc2C#N)ncn1` [Azoxystrobin, azoxystrobin]: the Yield in assay [1] (SDI chemigated twice (V8 & V8+14da.)) is 217 Bu./acre. Moreover, in assay [1] (SDI chemigated), the “Azoxystrobin % IWUE Increase over Untr./50% Irr.” value is reported as “+40% incr”, the “Azoxystrobin % IWUE Increase over Untr./100% irr.” value is given as “+114% incr”, the “Azoxystrobin % Yield Increase over Untr./50% Irr.” value is “+11% incr” and the “Azoxystrobin % Yield Increase over Untr./100% irr.” value was “+2.4% incr”. Besides, in assay [1] (SDI chemigated), the “IWUE (irrigation water use efficiency)” value is on record as 22.9 Bu./inch. Further, in assay [1] (SDI chemigated, listed as Quadris), the “Azoxystrobin % IWUE Increase over Untr./100% irr.” value is given as 114%. The molecule further came in with a Yield in assay [1] (foliar applied twice (V8 & V8+14da.)) of 211 Bu./acre. In addition, in assay [1] (foliar applied), the “Azoxystrobin % IWUE Increase over Untr./50% Irr.” value is on record as “+29% incr”, the “Azoxystrobin % IWUE Increase over Untr./100% irr.” value is recorded as “+97% incr”, the “Azoxystrobin % Yield Increase over Untr./50% Irr.” value was “+11% incr” and the “Azoxystrobin % Yield Increase over Untr./100% irr.” value is “+0% incr. over”. The “IWUE (irrigation water use efficiency)” value in assay [1] (foliar applied) turned out to be 21.1 Bu./inch. This molecule also had a Yield in assay [2] (foliar twice (V8 & V8+14da.)) of 250 Bu./acre. Besides, in assay [2] (foliar), the “Azoxystrobin % IWUE Increase over Untr./50% Irr.” value is given as “+3% incr. over”, the “Azoxystrobin % IWUE Increase over Untr./100% Irr.” value is reported as “+7% incr. over”, the “Azoxystrobin % Yield Increase over Untr./50% Irr.” value is on record as “+3% incr. over” and the “Azoxystrobin % Yield Increase over Untr./100% Irr.” value is “+0% incr. over”. The “IWUE (water productivity)” value in assay [2] (foliar) amounted to 494 lbs./acre in. Further, in assay [3], the “% Yield Increase by Product over Untr./50% Irr.” value was “+12.5% Incr. over Untr./50% Irr”; the Yield is 2077† Kg/Ha; the “Yield compared with the control, in words” value was “statistically higher than the control”. In assay [4] (chemigated), the “Azoxystrobin % IWUE Increase over Untr./60% irr.” value is listed as “+11% over”, the “Azoxystrobin % Yield Increase over Untr./60% irr.” value is “+5% over” and the “IWUE (water productivity)” value was 515 lbs/acre inch. The molecule also displayed a Yield in assay [4] (foliar applied (V6 & R1)) of 239 Bu./acre. Further, in assay [4] (foliar applied), the “Azoxystrobin % IWUE Increase over Untr./60% irr.” value is “+16% over”, the “Azoxystrobin % Yield Increase over Untr./60% irr.” value is given as “+7% over” and the “IWUE (water productivity)” value is 540 lbs/acre inch. The molecule also displayed a Yield in assay [4] (sprinkler chemigated (V6 & R1)) of 236 Bu./acre. Moreover, in assay [5] (setting [7]), the “% WUE Increase over the 100% irrigated Control” value is on record as 11% Increase, the “Treatment % Yield Increase over 60% Untreated” value was “+6% Incr”, the “Treatment % Yield Increase over 100% Untreated” value is on record as “+11% Incr” and the “WUE (water productivity)” value is recorded as 4.1 bushels/acre-inch. The Yield in assay [5] (setting [7]) came to 72 Bu./acre. Besides, in assay [5] (Azoxystrobin: foliar (2 applications) at 60% & 100% irrigated), the “Yield compared with the untreated, in words” value is given as “significant differences in yield”. The “WUE differences, in words” value in assay [5] (water deficit regime) is “Good WUE differences”.

`CCOC(=O)C1CC(=O)C(=C(O)C2CC2)C(=O)C1` (centres unmarked) [TXP, trinexapac-ethyl]: in assay [3], the “% Yield Increase by Product over Untr./50% Irr.” value is “+15.6% Incr. over Untr./50% Irr”; the Yield is reported as 2133† Kg/Ha; the “Yield compared with the control, in words” value is “statistically higher than the control”. In addition, in assay [6], the “% IWUE Increase over Untr./60% irr.” value is listed as “+5% over”, the “% Yield Increase over Untr./60% irr.” value is reported as “+3.5% over”, the “IWUE (water productivity)” value was 484 lbs/acre inch and the Yield amounted to 209 Bu./acre.

Values taken from patent publication US20140096445A1, “METHOD OF CULTIVATION IN WATER DEFICIT CONDITIONS” (SYNGENTA PARTICIPATIONS AG, priority 2011, published 2014).
